Test results as given in US9180164B2, “Compounds and methods of modulating angiogenesis” (THE CLEVELAND CLINIC FOUNDATION, priority 2011, dated 2015).

Key:
neovascularization = test: Matrigel plug assay, hemoglobin extracted from Matrigel; assay type: in vivo, mice; conditions: 50 mM peptide in Matrigel with VEGF (60 ng/mL), subcutaneous, 7 days
Procedure: Matrigel plug assays were performed in age- and sex-matched C57/B16 background mice. […] After 7 days, the animals were euthanized and dissected. Matrigel plugs were removed and digested using 5 mL Drabkin reagent and neovascularization was assessed using a hemoglobin assay as per the manufacturer's protocol (FIG. 16).
Angiogenic response was measured based on the amount of hemoglobin extracted from Matrigel.

HUVECs = test: Cell adhesion assay with inhibiting peptide; assay type: cell-based, Human; conditions: HUVECs on integrin ligand coated plates
Procedure: Cells were washed twice with sterile phosphate buffered saline (PBS) and re-suspended in serum-free DMEN. The cell suspensions were added to integrin ligand-coated wells and placed in a humidified incubator for 45 min. The wells were gently washed three times with DMEM and photographs were taken. The numbers of attached and spread cells per field were counted.
To examine endothelial cell adhesion to various ECM proteins following inhibition of expression of specific integrin subunits, HUVECs were plated on various integrin ligand coated plates and ability of EC to adhere to the distinct extracellular matrix components were tested after administration of a control peptide (YGRKKRRQRRR G DTANNPL FKEATSTFT-COOH) (SEQ ID NO: 43) or with equal amount of beta-3 integrin cytoplasmic domain inhibitory peptide (YGRKKRRQRRR G DTANNPLYpKEATSTFT-COOH) (SEQ ID NO: 44).

endothelial cells = test: VEGF-induced endothelial cell migration with inhibiting peptide; assay type: cell-based
Procedure: To examine the effect of the inhibiting peptide on endothelial cell migration, VEGF-induced migratory activity of endothelial cells was measured after administration of a control peptide (YGRKKRRQRRR G DTANNPL FKEATSTFT-COOH) (SEQ ID NO: 43) or with equal amount of beta-3 integrin cytoplasmic domain inhibitory peptide (YGRKKRRQRRR G DTANNPLYpKEATSTFT-COOH) (SEQ ID NO: 44) to the endothelial cells.

## YGRKKRRQRRR G DTANNPL Yp KEATSTFT-COOH
neovascularization
  hemoglobin concentration lower in Matrigel plugs compared to control peptide: at least 3.5 fold
HUVECs
  effect on cell adhesion compared to a control peptide: no effect on cell adhesion
Endothelial cells
  VEGF-induced endothelial cell migration compared to the control peptide: prevented endothelial cell migration
  capillary formation compared to the control peptide: inhibited capillary formation
